Consider 19 compounds from patent US10053453B2, “Compounds and their use as BACE inhibitors” (AstraZeneca AB, priority 2014, dated 2018).

Where two headings read alike, the source gives them in different places.

In experiment [1] the target is T1, Human BACE2 (Homo sapiens, UniProt Q9Y5Z0).
T1 construct: the soluble part of the human β-Secretase2 (AA1-AA473) was cloned using BACE2(1-473)-(AVT)-Fc-pDEST12.2 mammalian expression vector; AVT linker (C); made in house
T1 sequence (Q9Y5Z0 21-473): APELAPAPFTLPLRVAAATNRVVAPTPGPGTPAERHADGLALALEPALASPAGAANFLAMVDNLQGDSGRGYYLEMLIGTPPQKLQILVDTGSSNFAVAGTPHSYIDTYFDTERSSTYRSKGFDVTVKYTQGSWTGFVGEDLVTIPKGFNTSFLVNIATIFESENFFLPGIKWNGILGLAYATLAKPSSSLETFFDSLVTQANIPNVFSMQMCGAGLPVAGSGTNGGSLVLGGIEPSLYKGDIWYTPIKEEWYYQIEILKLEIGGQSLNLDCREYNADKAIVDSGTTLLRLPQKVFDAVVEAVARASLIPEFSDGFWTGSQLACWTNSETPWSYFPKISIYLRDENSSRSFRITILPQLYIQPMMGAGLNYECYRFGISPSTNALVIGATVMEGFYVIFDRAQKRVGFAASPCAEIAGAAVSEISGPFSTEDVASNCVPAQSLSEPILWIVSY
The experiment is described as follows: TR-FRET assay. It is filed as biochemical. Particulars: enzyme 2.7 μg/mL, substrate 100 nM, pH4.5. The protocol:
The β-secretase enzyme used in the TR-FRET was prepared as follows:
Human BACE1: the cDNA for the soluble part of the human β-Secretase1 (AA1-AA460) was cloned using the BACE1(1-460)-(AVT)-Fc-pGEN-IRES-neo mammalian expression vector. The gene was fused to the Fe domain of IgG1 (affinity tag) and stably cloned into HEK 293 cells. […]
A multidrop Combi was used for the liquid handling. Enzyme (7 μL) was added to the compound plate (containing 0.8 μL of compound in dimethylsulphoxide). The plate was incubated for 10 minutes. Substrate (8 μL) was then added, and the reaction proceeded for 17 minutes at r.t. The reaction was stopped with the addition of Stop solution (5.5 μL, NaOAC, pH 9). Fluorescence was measured on a Pherastar plate reader using HTRF module. […] 5 reference inhibitors with different affinities were used at all screen occasions in dose response.

The subject of experiment [2] is SH-SY5Y cells. Description: sAPPβ release assay.
Setting [3] is: Homo sapiens, SH-SY5Y, read-out: IC50 Cell (sAPPβ release, nM), SH-SY5Y cells, compounds incubated 16-17 h.
The mark [4] stands for this setting: Homo sapiens, SH-SY5Y, read-out: IC50 Cell (sAPPβ release, nM).

With `[2H]C1([2H])OC(N)=N[C@]12c1cc(-c3cccnc3F)ccc1C[C@@]21CC[C@H](OC)[C@@H](C)C1` [Compound 5, (1S,1′R,3S,4S)-6′-(2-fluoropyridin-3-yl)-4-methoxy-3-methyl-3′H,5″H-dispiro[cyclohexane-1,2′-indene-1′,4″-oxazol]-5″,5″-d2-2″-amine], the IC50 is 888 nM in experiment [1] and 1.6 nM in experiment [2] (setting [3]).

For `[2H]C1([2H])OC(N)=N[C@]12c1cc(-c3cncc(F)c3)ccc1C[C@@]21CC[C@H](OC)[C@@H](C)C1` [Compound 9, (1S,1′R,3S,4S)-6′-(5-fluoropyridin-3-yl)-4-methoxy-3-methyl-3′H,5″H-dispiro[cyclohexane-1,2′-indene-1′,4″-oxazol]-5″,5″-d2-2″-amine], the IC50 in experiment [1] amounted to 118 nM; in experiment [2] (setting [3]), 0.5 nM. Take `COC1CCC2(CC1)Cc1ccc(-c3cc(Cl)cc(C#N)c3)cc1C21COC(N)=N1` (stereo not shown) [Compound 18, 3-((1r,4r)-2″-amino-4-methoxy-3′H,5″H-dispiro[cyclohexane-1,2′-indene-1′,4″-oxazol]-6′-yl-5″,5″-d2)-5-chlorobenzonitrile]: in experiment [2] (read-out: IC50 Cell (sAPPβ release), SH-SY5Y cells, compounds incubated 16-17 h), the IC50 was 3.3 nM.

For the compound `[2H]C1([2H])OC(N)=N[C@]12c1cc(-c3cncc(F)c3)ccc1C[C@]21CC[C@@H](OC)[C@H](C)C1` [Compound 25, (1R,1′R,3R,4R)-6′-(5-fluoropyridin-3-yl)-4-methoxy-3-methyl-3′H,5″H-dispiro[cyclohexane-1,2′-indene-1′,4″-oxazol]-5″,5″-d2-2″-amine], the IC50 in experiment [1] was determined as 135 nM; in experiment [2] (setting [3]), 1.8 nM. On to `CO[C@@H]1CC[C@]2(Cc3ccc(-c4cncnc4)cc3[C@@]23COC(N)=N3)C[C@H]1C` [Compound 33, (1R,1′R,3R,4R)-4-methoxy-3-methyl-6′-(pyrimidin-5-yl)-3′H,5″H-dispiro[cyclohexane-1,2′-indene-1′,4″-oxazol]-2″-amine], for which the IC50 in experiment [2] (setting [4]) turned out to be 2.2 nM. Still for that read-out and setting: the value for `[2H]C1([2H])OC(N)=NC12c1cc(-c3cc(C#N)cc(OC)c3)ccc1C[C@]21CC[C@@H](OC)CC1` (stereo partly shown) [Compound 36, 3-((1r,4r)-2″-amino-4-methoxy-3′H,5″H-dispiro[cyclohexane-1,2′-indene-1′,4″-oxazol]-6′-yl-5″,5″-d2)-5-methoxybenzonitrile] was 4 nM; that for `CO[C@H]1CC[C@]2(CC1)Cc1ccc(-c3cncc(C)c3)cc1C21COC(N)=N1` (stereo partly shown) [Compound 41, (1r,4r)-4-methoxy-6′-(5-methylpyridin-3-yl)-3′H,5″H-dispiro[cyclohexane-1,2′-indene-1′,4″-oxazol]-2″-amine] was 5.1 nM. `[2H]C([2H])([2H])O[C@H]1CC[C@@]2(Cc3ccc(-c4cncc(F)c4)cc3[C@]23N=C(N)OC3([2H])[2H])C[C@@H]1C` [Compound 66, (1S,1′R,3S,4S)-6′-(5-fluoropyridin-3-yl)-4-(methoxy-d3)-3-methyl-3′H,5″H-dispiro[cyclohexane-1,2′-indene-1′,4″-oxazol]-5″,5″-d2-2″-amine]: the values for the IC50 in experiment [1] and in experiment [2] (setting [3]) were 134 nM and less than 0.16 nM, respectively. In the case of `[2H]C1([2H])OC(N)=N[C@]12c1cc(-c3cccnc3F)ccc1C[C@]21CC[C@@H](OC)[C@H](C)C1` [Compound 67, (1R,1′R,3R,4R)-6′-(2-fluoropyridin-3-yl)-4-methoxy-3-methyl-3′H,5″H-dispiro[cyclohexane-1,2′-indene-1′,4″-oxazol]-5″,5″-d2-2″-amine], the IC50 in experiment [1] was determined as 736 nM; in experiment [2] (setting [3]), 1.7 nM. `[2H]C1([2H])OC(N)=N[C@]12c1cc(-c3cncnc3)ccc1C[C@@]21CC[C@H](OC)[C@@H](CC)C1` [Compound 68, (1S,1′R,3S,4S)-3-ethyl-4-methoxy-6′-(pyrimidin-5-yl)-3′H,5″H-dispiro[cyclohexane-1,2′-indene-1′,4″-oxazol]-5″,5″-d2-2″-amine]: the 50% inhibitory concentration (IC50) in experiment [2] (setting [4]) worked out at 1.9 nM.

On to `[2H]C([2H])([2H])O[C@H]1CC[C@@]2(Cc3ccc(-c4cncnc4)cc3[C@]23N=C(N)OC3([2H])[2H])C[C@@H]1C` [Compound 71, (1S,1′R,3S,4S)-4-(methoxy-d3)-3-methyl-6′-(pyrimidin-5-yl)-3′H,5″H-dispiro[cyclohexane-1,2′-indene-1′,4″-oxazol]-5″,5″-d2-2″-amine], for which the half-inhibitory concentration (IC50) in experiment [2] (setting [4]) was 1.3 nM.

For the compound `[2H]C([2H])([2H])O[C@@H]1CC[C@]2(Cc3ccc(-c4cncnc4)cc3[C@]23N=C(N)OC3([2H])[2H])C[C@H]1C` [Compound 73, (1R,1′R,3R,4R)-4-(methoxy-d3)-3-methyl-6′-(pyrimidin-5-yl)-3′H,5″H-dispiro[cyclohexane-1,2′-indene-1′,4″-oxazol]-5″,5″-d2-2″-amine], the IC50 in experiment [2] (setting [4]) worked out at 6.1 nM. Turning to `[2H]C([2H])([2H])O[C@H]1CC[C@@]2(Cc3ccc(-c4cccnc4F)cc3[C@]23N=C(N)OC3([2H])[2H])C[C@@H]1C` [Compound 74, (1S,1′R,3S,4S)-6′-(2-fluoropyridin-3-yl)-4-(methoxy-d3)-3-methyl-3′H,5″H-dispiro[cyclohexane-1,2′-indene-1′,4″-oxazol]-5″,5″-d2-2″-amine], in experiment [2] (setting [3]), the IC50 came out at 0.39 nM. Turning to `[2H]C1([2H])OC(N)=N[C@]12c1cc(-c3cncnc3)ccc1C[C@]21CC[C@@H](OC)[C@H](CC)C1` [Compound 75, (1R,1′R,3R,4R)-3-ethyl-4-methoxy-6′-(pyrimidin-5-yl)-3′H,5″H-dispiro[cyclohexane-1,2′-indene-1′,4″-oxazol]-5″,5″-d2-2″-amine], the IC50 in experiment [2] (setting [4]) was 0.9 nM. On to `[2H]C1([2H])OC(N)=N[C@]12c1cc(-c3cc(F)cnc3F)ccc1C[C@@]21CC[C@H](OC)[C@@H](C)C1` [Compound 76, (1S,1′R,3S,4S)-6′-(2,5-difluoropyridin-3-yl)-4-methoxy-3-methyl-3′H,5″H-dispiro[cyclohexane-1,2′-indene-1′,4″-oxazol]-5″,5″-d2-2″-amine], for which the IC50 stood at 231 nM in experiment [1] and 0.5 nM in experiment [2] (setting [3]).

In the case of `CO[C@H]1CC[C@]2(CC1)Cc1ccc(-c3cncc(C)c3)cc1[C@@]21COC(N)=N1` [Compound 77, (1r,1′R,4R)-4-methoxy-6′-(5-methylpyridin-3-yl)-3′H,5″H-dispiro[cyclohexane-1,2′-indene-1′,4″-oxazol]-2″-amine], the IC50 in experiment [2] (setting [4]) was found to be 7.5 nM. In the case of `[2H]C([2H])([2H])O[C@@H]1CC[C@]2(Cc3ccc(-c4cccnc4F)cc3[C@]23N=C(N)OC3([2H])[2H])C[C@H]1C` [Compound 78, (1R,1′R,3R,4R)-6′-(2-fluoropyridin-3-yl)-4-(methoxy-d3)-3-methyl-3′H,5″H-dispiro[cyclohexane-1,2′-indene-1′,4″-oxazol]-5″,5″-d2-2″-amine], the IC50 turned out to be 895 nM in experiment [1] and 1.5 nM in experiment [2] (setting [3]). As to `[2H]C([2H])([2H])O[C@@H]1CC[C@]2(Cc3ccc(-c4cncc(F)c4)cc3[C@]23N=C(N)OC3([2H])[2H])C[C@H]1C` [Compound 79, (1R,1′R,3R,4R)-6′-(5-fluoropyridin-3-yl)-4-(methoxy-d3)-3-methyl-3′H,5″H-dispiro[cyclohexane-1,2′-indene-1′,4″-oxazol]-5″,5″-d2-2″-amine], the IC50 was 207 nM in experiment [1] and 2.1 nM in experiment [2] (setting [3]).

Take `[2H]C1([2H])OC(N)=N[C@]12c1cc(-c3cc(F)cnc3F)ccc1C[C@]21CC[C@@H](OC)[C@H](C)C1` [Compound 109, {(1R,1′R,3R,4R)-6′-(2,5-difluoropyridin-3-yl)-4-methoxy-3-methyl-3′H,5″H-dispiro[cyclohexane-1,2′-indene-1′,4″-oxazol]-5″,5″-d2-2″-amine}]: the figures for the IC50 in experiment [1] and in experiment [2] (setting [3]) were 458 nM and 1.8 nM, respectively.

In general, IC50 refers to the concentration needed to halve the response being measured.
